Assay: Solubility in solvents
Assay type: physicochemical

Measured: Solubility

COC(=O)Nc1nc2ccccc2[nH]1 [Unmodified Mold-Proof Agent, methy benzimidazol-2-ylcarbamate]
<0.3%: Dimethylformamide (DMF) | Ethyl acetate (EAC) | Methanol (ME) | Methyl-Ethyl Ketone (MEK) | N,N-dimethylacetamide (DMAC)
